# Measurements from patent US11141455B2, “Peptide analogues with branched amino acid probe(s)” (priority 2014, dated 2021).
# Where a SMILES comes first, the peptide text is derived from it.
# Columns and labels:
# MC3r = target: T1, MC3r (Homo sapiens, UniProt P41968); test: Radioligand binding, displacement of 125I-NDP-αMSH (Cerep); details: Example 2, α-MSH analogues
# T1 construct: 0959 (cAMP); host or cells: CHO cells
# Description: Murine B16-F1 cells expressing MCr1 are used for determination of binding affinity to and agonist activity against the MC1r. Human recombinant CHO cells expressing MC3r, MC4r or MC5r are used for determination of affinity to or agonist activity against the MC3r, MC4r and MC5r, respectively. […] The test items are tested in a concentration range of 10^−13 to 10^−5M.
# human GLP-1 receptor = target: T2, human GLP-1 receptor (Homo sapiens, UniProt P43220); test: cAMP production (HTRF) in CHO-K1 cells expressing GLP-1 receptor; assay type: cell-based; details: CHO-K1; read-out: Max efficacy in % of control peptide
# T2 construct: expressed in transfected cells; host or cells: CHO-K1 cells
# [1] = target: T3, recombinant human type 2 Formyl peptide receptor (FPR2) (Homo sapiens, UniProt P25090); test: Aequorin light emission agonist assay in recombinant FPR2 cells; assay type: cell-based; details: at the highest tested dose; read-out: maximal agonist activity, % of max response of internal control Trp-Lys-Tyr-Met-Val-Met
# T3 construct: expressed in transfected cells
# T3 sequence (P25090 1-351): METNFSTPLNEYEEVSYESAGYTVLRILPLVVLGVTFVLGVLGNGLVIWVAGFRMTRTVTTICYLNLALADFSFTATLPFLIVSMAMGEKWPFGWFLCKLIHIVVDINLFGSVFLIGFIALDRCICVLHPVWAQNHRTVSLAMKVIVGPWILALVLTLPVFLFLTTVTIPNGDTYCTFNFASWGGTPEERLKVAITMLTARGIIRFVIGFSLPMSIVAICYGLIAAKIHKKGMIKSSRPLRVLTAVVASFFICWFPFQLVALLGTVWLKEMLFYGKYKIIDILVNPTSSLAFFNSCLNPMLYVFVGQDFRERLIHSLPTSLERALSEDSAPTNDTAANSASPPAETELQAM
# Description: Recombinant cells co-expressing mitochondrial apoaequirin and recombinant human type 2 Formyl peptide receptor (FPR2) were grown for 18 hours prior to testing in media without antibiotics were detached by gentle flushing with PBS-EDTA (5 mM EDTA), recovered by centrifugation and re-suspended in assay buffer (DHEM/HAM's F12 with HEPES and 0.1% protease free BSA). Cells were then incubated for at least 4 hours at room temperature coelenterazine h (from Molecular Probes) before DR studies were conducted.
# 50 μl of cell suspension was injected on 50 μl of the test or control compound (solubilized in PBS/0.5% BSA and finally diluted from a stock solution of 1 mM) at increasing concentrations in 96 wells plates and then incubated 30 min at room temperature. The resulting light emission was recorded using the Hamamatsu functional drug Screening system 6000 (FDSS6000). For standardization of emission of recorded light across plates and between experiments 100 μM digitonin or 20 μM ATP were added to some of the wells.
# The test compounds were tested in a concentration range from 10^−11 to 10^−5M
# Data is presented as mean values.
# T2 sequence (P43220 24-463): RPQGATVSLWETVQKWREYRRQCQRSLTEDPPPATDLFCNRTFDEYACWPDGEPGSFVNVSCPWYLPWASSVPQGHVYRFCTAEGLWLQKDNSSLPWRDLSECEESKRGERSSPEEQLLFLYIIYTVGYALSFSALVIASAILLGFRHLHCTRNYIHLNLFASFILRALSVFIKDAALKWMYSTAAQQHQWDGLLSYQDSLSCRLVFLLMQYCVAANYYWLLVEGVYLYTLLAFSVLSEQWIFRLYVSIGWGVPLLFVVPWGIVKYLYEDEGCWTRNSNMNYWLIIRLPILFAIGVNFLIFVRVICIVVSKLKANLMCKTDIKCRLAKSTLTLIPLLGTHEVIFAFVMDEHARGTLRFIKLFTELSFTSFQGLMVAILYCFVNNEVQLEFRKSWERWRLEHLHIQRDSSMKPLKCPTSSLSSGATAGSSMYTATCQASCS
# T1 sequence (P41968 whole entry): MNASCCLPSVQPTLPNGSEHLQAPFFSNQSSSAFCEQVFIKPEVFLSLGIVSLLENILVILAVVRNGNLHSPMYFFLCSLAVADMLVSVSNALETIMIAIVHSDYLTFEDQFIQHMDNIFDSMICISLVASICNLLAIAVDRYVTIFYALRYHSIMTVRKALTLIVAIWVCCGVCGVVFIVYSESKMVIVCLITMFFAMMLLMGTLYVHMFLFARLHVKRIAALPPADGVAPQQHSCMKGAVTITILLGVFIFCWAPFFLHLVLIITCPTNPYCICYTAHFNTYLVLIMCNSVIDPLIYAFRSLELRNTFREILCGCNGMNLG
Ki (MC3r) [nM],Emax (human GLP-1 receptor) [%],Emax [1] [%],Compound
24,101,–,CSCC[C@H](NC(=O)[C@H](CO)NC(=O)[C@H](Cc1ccc(O)cc1)NC(=O)[C@H](CO)NC(=O)[C@H](CCCCNC(=O)[C@H](CCCCN)NC(=O)[C@H](CCCCN)NC(C)=O)NC(C)=O)C(=O)N[C@@H](CCC(=O)O)C(=O)N[C@@H](Cc1c[nH]cn1)C(=O)N[C@@H](Cc1ccccc1)C(=O)N[C@@H](CCCNC(=N)N)C(=O)N[C@@H](Cc1c[nH]c2ccccc12)C(=O)NCC(=O)N[C@@H](CCCCN)C(=O)N1CCC[C@H]1C(=O)N[C@H](C(N)=O)C(C)C [Analogue 1]
–,–,85,"CSCC[C@H](NC(=O)[C@H](C)NC(C)=O)C(=O)N[C@H](C(=O)N[C@@H](CO)C(=O)N[C@@H](CCC(=O)O)C(=O)N[C@@H](Cc1ccccc1)C(=O)N[C@@H](CC(C)C)C(=O)N[C@@H](CCCCNC(=O)[C@H](CCCCN)NC(=O)[C@H](CCCCNC(=O)[C@H](CCCCN)NC(C)=O)NC(C)=O)C(=O)N[C@@H](CCC(N)=O)C(=O)N[C@@H](C)C(=O)N[C@@H](Cc1c[nH]c2ccccc12)C(N)=O)C(C)C [analogue 7] (HELM PEPTIDE1{[ac].A.M.V.S.E.F.L.K.Q.A.W.[am]}|PEPTIDE2{[CC(=O)N[C@@H](CCCCN)C(=O)NCCCC[C@H](NC(C)=O)C(=O)[*:2]].K}$PEPTIDE1,PEPTIDE2,9:R3-2:R2$$$V2.0)"
